These results are taken from patent US10206907B2, “Compounds useful for the treatment of degenerative and inflammatory diseases” (GALAPAGOS NV, priority 2008, dated 2019).

Data set [1] addresses Recombinant human JAK1 catalytic domain (Homo sapiens (Human), UniProt P23458). The data set can be described thus: JAK1 inhibition assay. The format is biochemical. The settings on record: semi-quantitative score. Summed up:
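Radiometric assay read by scintillation counting after phosphoric-acid washes. Percent inhibition calculated from cpm relative to vehicle and 10 μM staurosporine control. IC50 derived from compound dose-dilution series.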

Data set [2] has as its target Recombinant human JAK2 catalytic domain (Homo sapiens (Human), UniProt O60674). The data set can be described thus: JAK2 inhibition assay. The format is biochemical. The following applies: semi-quantitative score. An outline of the steps:
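Radiometric kinase reactions ran for 90 min at 30 °C and were stopped with phosphoric acid, then washed and counted by scintillation. Percent inhibition was set relative to vehicle and to 10 μM staurosporine background. IC50 was derived from dose-dilution series.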

Data set [3] has as its target Recombinant human JAK3 catalytic domain (Homo sapiens (Human), UniProt P52333). The data set can be described thus: JAK3 inhibition assay. The format is biochemical. The following applies: semi-quantitative score. The procedure:
Plates were washed 6 times with 300 μL per well of a 75 mM phosphoric acid solution and the bottom of the plates was sealed. 40 μL/well of Microscint-20 was added, the top of the plates was sealed and readout was performed using the Topcount (Perkin Elmer). Kinase activity was calculated by subtracting counts per minute (cpm) obtained in the presence of a positive control inhibitor (10 μM staurosporine) from cpm obtained in the presence of vehicle. The ability of a test compound to inhibit this activity was determined as: Percentage inhibition=((cpm determined for sample with test compound present−cpm determined for sample with positive control inhibitor) divided by (cpm determined in the presence of vehicle−cpm determined for sample with positive control inhibitor))*100%.
Dose dilution series were prepared for the compounds enabling the testing of dose-response effects in the JAK3 assay and the calculation of the IC50 for each compound.

The test system of data set [4] is JAK-STAT signalling in HeLa cells. The data set can be described thus: JAK-STAT signalling assay (OSM-triggered pSTAT1(2)-luciferase reporter in HeLa cells). The format is cell-based. The following applies: Homo sapiens; HeLa cells, OSM-triggered pSTAT1(2)-luciferase reporter; read-out: STAT signalling EC50. An outline of the steps:
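HeLa cells transiently transfected with pSTAT1(2)-luciferase reporter plus LacZ internal control, incubated overnight at 37 °C, 10% CO2, then OSM-stimulated with compound. Luciferase read by Steadylite luminescence and normalised to β-galactosidase (ONPG); percent inhibition from controls, EC50 from dose-response.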
In general terms: In a reporter assay the amount or activity of a reporter protein is the signal.

Another data set concerns MMP13 in SW1353 cells. The data set can be described thus: OSM/IL-1β signaling assay (MMP13 levels in SW1353 cells).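 Further: secreted MMP13 captured by antibody, activated with APMA and its activity read by fluorescence, inhibition scaled between vehicle-treated triggered wells (0%) and untriggered wells (100%).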 The format is cell-based. The following applies: Homo sapiens; SW1353 cells, OSM and IL-1β triggered, MMP13 levels 48 hours after triggering; read-out: MMP13 EC50.
A short description of data set [5]: Microsomal stability, human liver microsomes. The format is in vitro ADME. The settings on record: percentage of compound remaining after 60 minutes, 3 μM compound. An outline of the steps:
(§1)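 Compound was incubated with liver microsomes plus an NADP+/glucose-6-phosphate/G6PDH/MgCl2 regenerating system at 37°C for 1 h. Reactions were stopped 1:1 with MeOH or ACN and analysed by LCMS.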
For orientation: Microsomes from liver hold many membrane-bound enzymes, among them those of drug oxidation.

Data set [6] in a line: Microsomal stability, rat liver microsomes. The format is in vitro ADME. The settings on record: percentage of compound remaining after 60 minutes, 3 μM compound. An outline of the steps: as §1
Data set [7] is described as follows: Caco2 permeability (bi-directional). The format is in vitro ADME, human. The settings on record: human, pH 7.4; for Papp A→B at 1 h, 10 µM: Caco-2, apical to basolateral, read-out: Papp (A2B); for efflux ratio at 1 h, 10 µM: Caco-2, ratio of PappB>A/PappA>B. Summed up: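 Bidirectional transport across Caco-2 monolayers was run for 1 h at 37 °C with shaking, with 50 μM Lucifer Yellow in the donor to check monolayer integrity (acceptance ≤100 nm/s). Apical and basal compound levels were measured by LC-MS/MS, and efflux ratio was taken as PappB>A/PappA>B.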
Background: Passage across Caco-2 layers is used to estimate intestinal permeability.

Sequence of Recombinant human JAK2 catalytic domain (O60674 808-1132): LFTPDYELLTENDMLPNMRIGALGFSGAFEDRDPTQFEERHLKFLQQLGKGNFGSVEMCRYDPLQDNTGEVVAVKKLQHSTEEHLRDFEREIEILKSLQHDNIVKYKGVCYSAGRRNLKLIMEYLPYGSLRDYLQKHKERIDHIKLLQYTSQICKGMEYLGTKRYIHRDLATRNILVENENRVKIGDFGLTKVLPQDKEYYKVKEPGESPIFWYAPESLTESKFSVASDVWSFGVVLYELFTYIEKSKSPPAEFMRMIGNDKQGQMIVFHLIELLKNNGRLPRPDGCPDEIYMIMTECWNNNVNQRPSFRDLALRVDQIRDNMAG
Sequence of Recombinant human JAK1 catalytic domain (P23458 850-1154): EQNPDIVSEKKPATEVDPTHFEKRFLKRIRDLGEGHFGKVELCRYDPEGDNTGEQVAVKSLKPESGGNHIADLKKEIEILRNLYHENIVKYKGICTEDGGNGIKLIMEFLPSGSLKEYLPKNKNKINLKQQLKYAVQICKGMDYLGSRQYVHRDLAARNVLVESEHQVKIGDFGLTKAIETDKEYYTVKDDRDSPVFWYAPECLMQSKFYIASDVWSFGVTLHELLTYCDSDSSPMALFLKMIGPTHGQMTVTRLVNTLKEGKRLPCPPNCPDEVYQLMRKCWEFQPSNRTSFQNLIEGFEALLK
Sequence of Recombinant human JAK3 catalytic domain (P52333 781-1124): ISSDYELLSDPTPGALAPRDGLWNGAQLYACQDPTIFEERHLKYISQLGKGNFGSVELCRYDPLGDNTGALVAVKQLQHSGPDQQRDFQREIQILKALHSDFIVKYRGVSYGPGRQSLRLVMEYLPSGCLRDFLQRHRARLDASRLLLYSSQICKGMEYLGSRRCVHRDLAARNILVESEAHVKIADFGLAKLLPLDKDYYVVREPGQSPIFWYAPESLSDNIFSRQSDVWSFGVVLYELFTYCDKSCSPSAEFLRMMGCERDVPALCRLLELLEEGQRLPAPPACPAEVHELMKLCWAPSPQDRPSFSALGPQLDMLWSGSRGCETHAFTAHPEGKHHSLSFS

A word on the IC50: it is the midpoint of a concentration-inhibition curve. What is called EC50 is the concentration that produces a half-maximal response. By efflux ratio is commonly meant a quotient of directional permeabilities that is used to spot active efflux. In the case of `O=C(Nc1nc2cccc(-c3ccc(CN4CCC(C(F)(F)F)CC4)cc3)n2n1)C1CC1` [Compound 240, Cyclopropanecarboxylic acid {5-[4-(4-trifluoromethyl-piperidin-1-ylmethyl)-phenyl]-[1,2,4]triazolo[1,5-a]pyridin-2-yl}-amide], the IC50 in data set [1] is under 100 nM; in data set [2], under 100 nM; in data set [3], 501 to 1000 nM. Also, the EC50 is 101 to 500 nM in data set [4] and over 1000 nM in the data set on MMP13 in SW1353 cells. In addition, in data set [5], the “Microsomal Stability Human (%)” value is given as “** (** 26-50)”. Also, the “Microsomal Stability Rat (%)” value in data set [6] is “*** (*** 51-75)”. Besides, in data set [7], the Papp A→B at 1 h, 10 µM stood at 29.6 ×10⁻⁶ cm/s. The efflux ratio at 1 h, 10 µM in data set [7] was 1.3.
As to `CN(CCc1ccccc1)C(=O)c1ccc(-c2cccc3nc(NC(=O)C4CC4)nn23)cc1` [Compound 96, 4-(2-(cyclopropanecarboxamido)-[1,2,4]triazolo[1,5-a]pyridin-5-yl)-N-methyl-N-phenethylbenzamide], the IC50 in data set [1] is under 100 nM; in data set [2], under 100 nM; in data set [3] it was over 1000 nM. The EC50 (in data set [4]; in the data set on MMP13 in SW1353 cells) was over 1000 nM each time. Besides, the “Microsomal Stability Human (%)” value in data set [5] is “* (* 0-25)”. Also, in data set [6], the “Microsomal Stability Rat (%)” value is recorded as “* (* 0-25)”. In addition, in data set [7], the Papp A→B at 1 h, 10 µM was determined as 34.6 ×10⁻⁶ cm/s. The efflux ratio at 1 h, 10 µM in data set [7] is 1.
Turning to `O=C(NCCc1ccc(C(F)(F)F)cc1)c1ccc(-c2cccc3nc(NC(=O)C4CC4)nn23)cc1` [Compound 97, 4-(2-(cyclopropanecarboxamido)-[1,2,4]triazolo[1,5-a]pyridin-5-yl)-N-(4-(trifluoromethyl)phenethyl) benzamide], the results for the IC50 in data set [1], in data set [2] and in data set [3] were under 100 nM, under 100 nM and 101 to 500 nM, respectively. Also, the EC50 in data set [4] fell in the range of 101 to 500 nM; in the data set on MMP13 in SW1353 cells, 501 to 1000 nM. The “Microsomal Stability Human (%)” value in data set [5] is recorded as “* (* 0-25)”. In data set [6], the “Microsomal Stability Rat (%)” value is on record as “** (** 26-50)”. The Papp A→B at 1 h, 10 µM in data set [7] was found to be 23.8 ×10⁻⁶ cm/s. Besides, in data set [7], the efflux ratio at 1 h, 10 µM amounted to 2.61.
Turning to `O=C(NCc1cccc(F)c1)c1ccc(-c2cccc3nc(NC(=O)C4CC4)nn23)cc1` [Compound 29, 4-(2-(cyclopropanecarboxamido)-[1,2,4]triazolo[1,5-a]pyridin-5-yl)-N-(3-fluorobenzyl)benzamide], the IC50 in data set [1] was under 100 nM; in data set [2] it was 101 to 500 nM; in data set [3] it was over 1000 nM. Moreover, the EC50 in data set [4] was 101 to 500 nM; in the data set with MMP13 in SW1353 cells it was over 1000 nM. Besides, in data set [5], the “Microsomal Stability Human (%)” value was “*** (*** 51-75)”. In addition, the “Microsomal Stability Rat (%)” value in data set [6] was “** (** 26-50)”. The Papp A→B at 1 h, 10 µM in data set [7] is 7.78 ×10⁻⁶ cm/s. Further, the efflux ratio at 1 h, 10 µM in data set [7] was 5.2.
On to `O=C(Nc1nc2cccc(-c3ccc(C(=O)N4CCCN(Cc5ccccc5)CC4)cc3)n2n1)C1CC1` [Compound 75, N-(5-(4-(4-benzyl-1,4-diazepane-1-carbonyl)phenyl)-[1,2,4]triazolo[1,5-a]pyridin-2-yl)cyclopropanecarboxamide], for which the figures for the IC50 in data set [1], in data set [2] and in data set [3] were under 100 nM, 101 to 500 nM and over 1000 nM, respectively. Moreover, the EC50 in data set [4] was over 1000 nM; in the data set with MMP13 in SW1353 cells, 501 to 1000 nM. For the same compound, in data set [5], the “Microsomal Stability Human (%)” value is listed as “* (* 0-25)”. In addition, the “Microsomal Stability Rat (%)” value in data set [6] is “* (* 0-25)”. The Papp A→B at 1 h, 10 µM in data set [7] was 18.2 ×10⁻⁶ cm/s. The efflux ratio at 1 h, 10 µM in data set [7] was found to be 2.5.
On to `O=C(Nc1nc2cccc(-c3ccc(NCc4ccccc4)cc3)n2n1)C1CC1` [Compound 72, N-(5-(4-(benzylamino)phenyl)-[1,2,4]triazolo[1,5-a]pyridin-2-yl)cyclopropanecarboxamide], for which the IC50 in data set [1] was under 100 nM; in data set [2], under 100 nM; in data set [3] it was 501 to 1000 nM. Moreover, the EC50 in data set [4] was over 1000 nM; with MMP13 in SW1353 cells it was 501 to 1000 nM. For the same compound, the “Microsomal Stability Human (%)” value in data set [5] is “* (* 0-25)”. Further, the “Microsomal Stability Rat (%)” value in data set [6] is recorded as “* (* 0-25)”. Besides, the efflux ratio at 1 h, 10 µM in data set [7] was determined as 1.31.
Regarding `O=C(NCCc1ccccc1)c1ccc(-c2cccc3nc(NC(=O)C4CC4)nn23)cc1` [Compound 87, 4-(2-(cyclopropanecarboxamido)-[1,2,4]triazolo[1,5-a]pyridin-5-yl)-N-phenethylbenzamide], the figures for the IC50 in data set [1], in data set [2] and in data set [3] were under 100 nM, under 100 nM and 101 to 500 nM, respectively. The values for the EC50 (in data set [4]; in the data set with MMP13 in SW1353 cells) were 101 to 500 nM and 501 to 1000 nM, respectively. In addition, the “Microsomal Stability Human (%)” value in data set [5] was “* (* 0-25)”. Further, the “Microsomal Stability Rat (%)” value in data set [6] is on record as “* (* 0-25)”. Further, the Papp A→B at 1 h, 10 µM in data set [7] came out at 20.9 ×10⁻⁶ cm/s. The efflux ratio at 1 h, 10 µM in data set [7] was 1.81.
Turning to `O=C(Nc1nc2cccc(-c3ccc(OCc4ccc(C(F)(F)F)nc4)cc3)n2n1)C1CC1` [Compound 78, N-(5-(4-((6-(trifluoromethyl)pyridin-3-yl)methoxy)phenyl)-[1,2,4]triazolo[1,5-a]pyridin-2-yl)cyclopropanecarboxamide], the results for the IC50 in data set [1], in data set [2] and in data set [3] were under 100 nM, under 100 nM and 101 to 500 nM, respectively. In addition, the results for the EC50 (in data set [4]; in the data set on MMP13 in SW1353 cells) were over 1000 nM and 501 to 1000 nM, respectively. Further, the “Microsomal Stability Human (%)” value in data set [5] is listed as “**** (**** 76-100)”. Moreover, in data set [6], the “Microsomal Stability Rat (%)” value is “**** (**** 76-100)”. Besides, in data set [7], the efflux ratio at 1 h, 10 µM stood at 1.5.
Consider `O=C(Nc1nc2cccc(-c3ccc(NCc4ccccc4)nc3)n2n1)C1CC1` [Compound 104, N-(5-(6-(benzylamino)pyridin-3-yl)-[1,2,4]triazolo[1,5-a]pyridin-2-yl)cyclopropanecarboxamide], for which the IC50 was under 100 nM in data set [1], 101 to 500 nM in data set [2] and over 1000 nM in data set [3]. The EC50 (in data set [4]; in the data set on MMP13 in SW1353 cells) was over 1000 nM each time. Also, the “Microsomal Stability Human (%)” value in data set [5] is listed as “* (* 0-25)”. Besides, in data set [6], the “Microsomal Stability Rat (%)” value is on record as “* (* 0-25)”. In data set [7], the Papp A→B at 1 h, 10 µM was determined as 28 ×10⁻⁶ cm/s. In addition, the efflux ratio at 1 h, 10 µM in data set [7] was 0.9.
For the compound `O=C(Nc1nc2cccc(-c3cnn(Cc4ccccc4)c3)n2n1)C1CC1` [Compound 107, N-(5-(1-benzyl-1H-pyrazol-4-yl)-[1,2,4]triazolo[1,5-a]pyridin-2-yl)cyclopropanecarboxamide], the IC50 in data set [1] is under 100 nM; in data set [2] it was under 100 nM; in data set [3] it was over 1000 nM. The EC50 (in data set [4]; in the data set with MMP13 in SW1353 cells) was over 1000 nM throughout. For the same compound, the “Microsomal Stability Human (%)” value in data set [5] is on record as “* (* 0-25)”. In addition, in data set [6], the “Microsomal Stability Rat (%)” value is given as “* (* 0-25)”. The Papp A→B at 1 h, 10 µM in data set [7] turned out to be 24.1 ×10⁻⁶ cm/s. In addition, the efflux ratio at 1 h, 10 µM in data set [7] came out at 1.05.
On to `O=C(NCCOc1ccccc1)c1ccc(-c2cccc3nc(NC(=O)C4CC4)nn23)c(F)c1` [Compound 100, 4-(2-(cyclopropanecarboxamido)-[1,2,4]triazolo[1,5-a]pyridin-5-yl)-3-fluoro-N-(2-phenoxyethyl)benzamide], for which the IC50 in data set [1] is under 100 nM; in data set [2], under 100 nM; in data set [3], over 1000 nM. In addition, the EC50 (in data set [4]; in the data set on MMP13 in SW1353 cells) was over 1000 nM throughout. Besides, in data set [5], the “Microsomal Stability Human (%)” value is “* (* 0-25)”. Also, the “Microsomal Stability Rat (%)” value in data set [6] is on record as “* (* 0-25)”. Also, the Papp A→B at 1 h, 10 µM in data set [7] came out at 11.8 ×10⁻⁶ cm/s. In addition, the efflux ratio at 1 h, 10 µM in data set [7] was found to be 3.23.
